Test in all cases: relative viability (nuclei count vs DMSO), 5 days (fraction); higher = more cells survive
Compound in assay [1]: COc1cc2nc(N3CCCN(C)CC3)nc(NC3CCN(Cc4ccccc4)CC3)c2cc1OC + C[C@]1(O)C[C@@H](c2nc(-c3ccc4ccc(-c5ccccc5)nc4c3)c3c(N)nccn32)C1 [Linsitinib] (partner 1 µM)
The gist of the method: (§1)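 A single step with final 0.05% Triton X-100, 1% formaldehyde and 1 ug/ml Hoechst fixed the cells and stained nuclei 5 days after treatment. Lung cancer cell lines in 1536-well plates had been treated by pin tool the day after seeding with one drug alone or a fixed anchor-drug dose plus five library-drug doses (not always all listed) in √10 steps, and nuclei were counted on 4× images. Relative viability is the ratio of nuclei in treated wells to nuclei in vehicle wells, taken as the median of duplicate plates.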

Compound in assay [2]: Cc1cc([C@@H](C)Nc2ccccc2C(=O)O)c2nc(N3CCOCC3)cc(=O)n2c1 [AZD6482] + Nc1ncn([C@H]2C[C@H](O)[C@@H](CO)O2)c(=O)n1 [Decitabine] (partner 2 µM)
The gist of the method:
as §1

Compound in assay [3]: Cc1cc([C@@H](C)Nc2ccccc2C(=O)O)c2nc(N3CCOCC3)cc(=O)n2c1 [AZD6482] + Cc1cc(Nc2cc(N3CCN(C)CC3)nc(Sc3ccc(NC(=O)C4CC4)cc3)n2)n[nH]1 [Tozasertib] (partner 0.1 µM)
In a few lines: as §1

Compound in assay [4]: COc1cc2nc(N3CCCN(C)CC3)nc(NC3CCN(Cc4ccccc4)CC3)c2cc1OC + CS(=O)(=O)CCNCc1ccc(-c2ccc3ncnc(Nc4ccc(OCc5cccc(F)c5)c(Cl)c4)c3c2)o1 [Lapatinib] (partner 2 µM)
The gist of the method: as §1

Consider UMC-11, for which the relative viability worked out at 1.03 in assay [1] (first compound 0.2 µM); 1.03 in assay [1] (first compound 0.6325 µM); 1.05 in assay [1] (first compound 2 µM); 1.04 in assay [1] (first compound 6.325 µM); 0.623 in assay [2] (first compound 0.08 µM); 0.584 in assay [2] (first compound 0.253 µM). For the same cell line, the relative viability in assay [2] (first compound 0.8 µM) was found to be 0.606; in assay [2] (first compound 8 µM) it was 0.613; in assay [3] (first compound 0.08 µM), 0.19; in assay [3] (first compound 0.253 µM), 0.209; in assay [3] (first compound 0.8 µM), 0.186; in assay [3] (first compound 2.53 µM), 0.23. In addition, the relative viability in assay [3] (first compound 8 µM) was found to be 0.201; in assay [4] (first compound 0.2 µM) it was 0.93; in assay [4] (first compound 0.6325 µM), 1.12; in assay [4] (first compound 2 µM), 1.03; in assay [4] (first compound 6.325 µM) it was 0.656.

For the origin of these results see the supplement of paper PMC10307832.
